Reference: patent US10744125B2, “Adenosine A3 receptor modulators” (Palobiofarma, S.L., priority 2017, dated 2020)

Tests used:
adenosine A2B receptor = adenosine A2B receptor (Homo sapiens (Human), UniProt P29275); test: A2B adenosine receptor competition radioligand binding assay; details: human recombinant source (HEK-293 cells), [3H]DPCPX
Procedure: A2B Adenosine Receptor Competition Radioligand Binding Assay
The binding assay for adenosine A2B receptor subtype was carried out on human recombinant source (HEK-293 cells) and [^3H]DPCPX as radioligand, according to assay disclosed by Fredholm et al. (International Union of Pharmacology. XXV. Nomenclature and classification of adenosine receptors, Pharmacol Rev. 2001 December; 53(4):527-52).

human A2A receptors = human A2A receptors (Homo sapiens (Human), UniProt P29274); test: A2A adenosine receptor competition radioligand binding assay; details: membranes from human A2A receptors transfected to HeLa cells, [3H]-ZM241385
Procedure: (§1) Human membranes for recombinant adenosine receptors were purchased from Receptor Biology, Inc. (USA).
A2A Adenosine Receptor Competition Radioligand Binding Assay
Competitive assays were carried out by incubation of membranes from human A2A receptors transfected to HeLa cells, [^3H]-ZM241385, buffer (Tris-HCl 50 mM (pH=7.4), 10 mM MgCl2, EDTA 1 mM and 2 units/ml adenosine deaminase), and unlabelled ligand in a total volume of 0.2 ml for 60 min at 25° C. NECA was used to determine nonspecific binding. It was filtered over Schleicher & Schuell GF/52 (presoaked with 0.5% polyethyleneimine) in a Brandel cell harvester. The unbound radioligand was removed with 3×250 μl of 20 mM Tris-HCl 50 mM (pH=7.4), 10 mM MgCl2, EDTA 1 mM.

human A3 receptors = human A3 receptors (Homo sapiens (Human), UniProt P0DMS8); test: A3 adenosine receptor competition radioligand binding assay; details: membranes from human A3 receptors transfected to CHO cells, [3H]-NECA
Procedure: as §1
A3 Adenosine Receptor Competition Radioligand Binding Assay
Competitive assays were carried out by incubation of membranes from human A3 receptors transfected to CHO cells, [^3H]-NECA, buffer (20 mM HEPES (pH 7.4), 100 mM NaCl, 10 mM MgCl2, 2 units/ml adenosine deaminase), and unlabelled ligand in a total volume of 0.2 ml for 60 min at 25° C. R-PIA was used to determine nonspecific binding. It was filtered over Schleicher & Schuell GF/52 (presoaked with 0.5% polyethyleneimine) in a Brandel cell harvester. The unbound radioligand was removed with 3×250 μl of 20 mM HEPES (pH 7.4), 100 mM NaCl, 10 mM MgCl2.

hA1 receptors = hA1 receptors (Homo sapiens (Human), UniProt P30542); test: Adenosine A1 receptor subtype competition radioligand binding assay; details: hA1 receptors transfected to CHO cells, [3H]DPCPX
Procedure: as §1
Adenosine A1 Receptor Subtype Competition Radioligand Binding Assay
Competition assays were carried out by incubation of human recombinant membranes of adenosine receptors (Receptor Biology, Inc.) from hA1 receptors transfected to CHO cells, [^3H] DPCPX as radioligand, buffer (HEPES 20 mM (pH=7.4), 10 mM MgCl2, 100 mM NaCl, 2 U/mL of deaminase adenosine and non-labelled ligand in a total volume of 0.2 mL for 90 min at 25° C. R-PIA was used to determinate non-specific binding. Filter over Schleicher & Schuell GF/52 (pre-soaked 0.5% polyethylenimine) in a Brandel cell harvester. Unbound radioligand was removed with HEPES 30 mM (3×250 μl), NaCl (100 mM) and MgCl2 (10 mM).

[1] = test system: experimental autoimmune uveitis; details: experimental autoimmune uveitis model; cited from earlier work
[2] = test system: rheumatoid arthritis (RA) patients; details: oral administration twice daily for 12 weeks; cited from earlier work
A3AR receptor = A3AR receptor (Homo sapiens (Human), UniProt P0DMS8); details: read-out: affinity on the A3AR receptor (IC50); cited from earlier work
Chain of A3AR receptor (P0DMS8 whole entry): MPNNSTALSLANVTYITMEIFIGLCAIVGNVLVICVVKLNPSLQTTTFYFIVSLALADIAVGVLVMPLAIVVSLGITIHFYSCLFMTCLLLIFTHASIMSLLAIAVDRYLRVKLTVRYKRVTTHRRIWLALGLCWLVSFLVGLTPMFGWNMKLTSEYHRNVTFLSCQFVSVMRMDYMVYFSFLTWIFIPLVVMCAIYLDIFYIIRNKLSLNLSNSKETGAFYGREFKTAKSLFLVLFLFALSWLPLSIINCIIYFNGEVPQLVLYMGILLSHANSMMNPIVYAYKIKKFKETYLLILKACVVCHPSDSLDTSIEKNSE

Chain of human A2A receptors (P29274 whole entry): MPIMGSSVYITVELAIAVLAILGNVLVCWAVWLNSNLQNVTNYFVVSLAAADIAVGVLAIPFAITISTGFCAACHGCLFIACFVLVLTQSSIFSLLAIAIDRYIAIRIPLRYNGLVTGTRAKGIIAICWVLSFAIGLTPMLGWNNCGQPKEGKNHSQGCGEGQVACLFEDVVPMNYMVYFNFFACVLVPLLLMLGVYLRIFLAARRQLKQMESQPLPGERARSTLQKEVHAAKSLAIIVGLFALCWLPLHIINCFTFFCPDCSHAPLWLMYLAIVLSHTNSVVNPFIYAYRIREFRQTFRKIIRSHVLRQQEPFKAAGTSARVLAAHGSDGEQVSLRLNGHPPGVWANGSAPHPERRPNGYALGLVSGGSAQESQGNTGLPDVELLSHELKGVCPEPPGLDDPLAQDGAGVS
Chain of adenosine A2B receptor (P29275 whole entry): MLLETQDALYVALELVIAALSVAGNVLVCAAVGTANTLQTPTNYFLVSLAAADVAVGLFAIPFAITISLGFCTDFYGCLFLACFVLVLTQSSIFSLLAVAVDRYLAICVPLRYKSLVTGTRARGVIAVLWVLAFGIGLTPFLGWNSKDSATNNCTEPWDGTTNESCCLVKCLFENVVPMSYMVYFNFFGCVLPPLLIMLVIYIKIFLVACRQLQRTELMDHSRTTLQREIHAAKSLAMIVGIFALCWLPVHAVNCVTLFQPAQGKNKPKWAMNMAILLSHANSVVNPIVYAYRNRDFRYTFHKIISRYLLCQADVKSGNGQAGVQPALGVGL
Chain of hA1 receptors (P30542 whole entry): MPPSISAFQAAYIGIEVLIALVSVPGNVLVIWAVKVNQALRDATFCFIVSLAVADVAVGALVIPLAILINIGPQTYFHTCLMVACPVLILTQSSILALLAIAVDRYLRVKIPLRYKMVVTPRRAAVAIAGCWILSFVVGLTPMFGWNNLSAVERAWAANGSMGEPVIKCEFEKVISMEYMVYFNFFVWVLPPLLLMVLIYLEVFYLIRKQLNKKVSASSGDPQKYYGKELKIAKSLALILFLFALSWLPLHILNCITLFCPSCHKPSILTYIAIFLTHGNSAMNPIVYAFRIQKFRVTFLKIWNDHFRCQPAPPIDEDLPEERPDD
Chain of human A3 receptors (P0DMS8 whole entry): as the sequence (P0DMS8 whole entry) above

| Ki (adenosine A2B receptor) | Ki (human A2A receptors) | Ki (human A3 receptors) | Ki (hA1 receptors) | Structure (SMILES) | effect on manifestations of uveitis [1] | effect on disease signs and symptoms [2] | safety and tolerability [2] | IC50 (A3AR receptor) |
| --- | --- | --- | --- | --- | --- | --- | --- | --- |
| > 1000 nM | > 1000 nM | 65.5 nM | > 1000 nM | COc1cccc(-c2nc(NC(=O)c3ccc(N4CCC(C(=O)O)CC4)nc3)sc2C#N)c1 [Example 3, 1-(5-((5-cyano-4-(3-methoxyphenyl)thiazol-2-yl)carbamoyl)pyridin-2-yl) piperidine-4-carboxylic Acid] | – | – | – | – |
| – | – | – | – | CNC(=O)[C@H]1O[C@@H](n2cnc3c(NCc4cccc(I)c4)ncnc32)[C@H](O)[C@@H]1O [IB-MECA, 1-deoxy-1-[6-[((3-iodophenyl)methyl)amino]-9H-purin-9-yl]-N-methyl-β-D-ribofuranuronamide] | inhibited the clinical and pathological manifestations of uveitis | able to mediate an improvement of disease signs and symptoms | safe, well tolerated | – |
| > 500 nM | > 1000 nM | 26.3 nM | > 500 nM | N#Cc1sc(NC(=O)c2ccc(N3CCC(C(=O)O)CC3)nc2)nc1-c1ccccc1F [Example 5, 1-(5-((5-cyano-4-(2-fluorophenyl)thiazol-2-yl)carbamoyl)pyridin-2-yl) piperidine-4-carboxylic Acid] | – | – | – | – |
| – | – | – | – | COc1cc(Nc2ncc(F)c(Nc3ccc4c(n3)N(COP(=O)(O)O)C(=O)C(C)(C)O4)n2)cc(OC)c1OC [fostamatinib] | – | – | – | 81 nM |
| > 1000 nM | > 500 nM | 29.2 nM | > 500 nM | N#Cc1sc(NC(=O)c2ccc(N3CCC(C(=O)O)CC3)nc2)nc1-c1cccs1 [Example 14, 1-(5-(5-cyano-4-(thiophen-2-yl)thiazol-2-ylcarbamoyl)pyridin-2-yl) piperidine-4-carboxylic Acid] | – | – | – | – |
| > 1000 nM | > 1000 nM | 50.3 nM | > 1000 nM | N#Cc1sc(NC(=O)c2ccc(N3CCC(C(=O)O)CC3)nc2)nc1-c1cccc(F)c1 [Example 6, 1-(5-((5-cyano-4-(3-fluorophenyl)thiazol-2-yl)carbamoyl)pyridin-2-yl) piperidine-4-carboxylic Acid] | – | – | – | – |
| > 500 nM | > 1000 nM | 103 nM | > 500 nM | N#Cc1sc(NC(=O)c2ccc(N3CCC(C(=O)O)CC3)nc2)nc1-c1ccccc1 [Example 1, 1-(5-(5-cyano-4-phenylthiazol-2-ylcarbamoyl)pyridin-2-yl) piperidine-4-carboxylic Acid] | – | – | – | – |
